Experimental data taken from patent US6887890B2, “Compounds exhibiting thrombopoietin-like activities” (Chugai Seiyaku Kabushiki Kaisha, priority 2000, dated 2005).

System: Mpl-expressing Ba/F3 cell line (human mpl gene)
Assay: Measurement of thrombopoietin (TPO) activity: viable cell count of Mpl-expressing Ba/F3 cell line (Cell Count Reagent SF, absorbance 450 nm)
Type: cell-based
Settings: for Concentration: concentration corresponding to the maximum TPO activity value; for TPO activity: maximum TPO activity value, ODt/ODs×100 relative to maximum reaction of human TPO, Mpl-expressing Ba/F3 cells cultured at 37° C. for one day, at the concentration given
Protocol: The TPO activities of the compounds of the invention obtained in the aforementioned examples were measured by the procedure described below, for evaluation of their thrombopoietic effects.
Establishment of Mpl-expressing Ba/F3 Cell Line
The human mpl gene was cloned from cDNAs of the human erythroleukemia cell line HEL by PCR, and was incorporated into pCOS1 to construct an expression vector. The expression vector was transfected into Ba/F3 cells by electroporation method, and an Mpl-expressing Ba/F3 clone was established.
Measurement of Thrombopoietin (TPO) Activity
The cytokine-eliminated Mpl-expressing Ba/F3 line was plated in a 96-well plate at 25,000 cells/well. DMSO solutions containing the compounds obtained in each of the examples were then prepared to different specified concentration ranges, and each solution was added to the Mpl-expressing Ba/F3 cell line (final DMSO concentration: ≦0.1%), and the cell were cultured at 37° C. for one day. Human TPO (by R&D Systems or Genzyme) was used as a positive control.
Each of the cultured Mpl-expressing Ba/F3 cell lines was subjected to absorbance measurement at a wavelength of 450 nm (reference wavelength: 620 nm), corresponding to the viable cell count, using Cell Count Reagent SF (by Nacalai Tesque Inc.). The TPO activity of each compound for the Mpl-expressing Ba/F3 cell line was determined based on the following formula. TPO activity (%)=ODt/ODs×100
ODs: Absorbance at maximum reaction of human TPO (wavelength: 450-620 nm).
ODt: Absorbance of test solution (wavelength: 450-620 nm).
Tables 1 and 2 show the maximum TPO activity values and the corresponding concentrations of each compound, as obtained by the test described above.

| SMILES | Concentration | TPO activity |
| --- | --- | --- |
| Cl.N=C(N)NCCC[C@H](NC(=O)Cc1ccsc1)C(=O)Nc1ccc(C(c2ccc(NC(=O)[C@H](CCCNC(=N)N)NC(=O)Cc3ccsc3)cc2)c2ccc(NC(=O)[C@H](CCCNC(=N)N)NC(=O)Cc3ccsc3)cc2)cc1 (stereo partly drawn) [Example 38, tris[4-[N-α-[2-(thiophen-3-yl)acetyl]-L-arginyl]aminophenyl]methane hydrochloride] | 25 µM | 124% |
| NCCC[C@H](NC(=O)Cc1c[nH]c2ccccc12)C(=O)Nc1ccc(C(c2ccc(NC(=O)[C@H](CCCN)NC(=O)Cc3c[nH]c4ccccc34)cc2)c2ccc(NC(=O)[C@H](CCCN)NC(=O)Cc3c[nH]c4ccccc34)cc2)cc1.O=C(O)C(F)(F)F [Example 134, tris[4-[N-α-[2-(1H-indol-3-yl)acetyl]-L-ornithyl]aminophenyl]methane trifluoroacetate] | 50 µM | 67.2% |
| COc1ccc2c(CC(=O)N[C@H](CCCCN)C(=O)Nc3ccc(C(c4ccc(NC(=O)[C@@H](CCCCN)NC(=O)Cc5c(C)[nH]c6cc(OC)ccc56)cc4)c4ccc(NC(=O)[C@@H](CCCCN)NC(=O)Cc5c(C)[nH]c6cc(OC)ccc56)cc4)cc3)c(C)[nH]c2c1.Cl [Example 146, tris[4-[N-α-[2-(6-methoxy-2-methyl-1H-indol-3-yl)acetyl]-D-lysyl]aminophenyl]methane hydrochloride] | 25 µM | 83.6% |
| Cl.NCCCC[C@@H](NC(=O)Cc1cccs1)C(=O)Nc1ccc(C(c2ccc(NC(=O)[C@@H](CCCCN)NC(=O)Cc3cccs3)cc2)c2ccc(NC(=O)[C@@H](CCCCN)NC(=O)Cc3cccs3)cc2)cc1 [Example 164, tris[4-[N-α-[2-(thiophen-2-yl)acetyl]-D-lysyl]aminophenyl]methane hydrochloride] | 25 µM | 24.9% |
| CCc1[nH]c2ccccc2c1CC(=O)N[C@H](CCCCN)C(=O)Nc1ccc(C(c2ccc(NC(=O)[C@@H](CCCCN)NC(=O)Cc3c(CC)[nH]c4ccccc34)cc2)c2ccc(NC(=O)[C@@H](CCCCN)NC(=O)Cc3c(CC)[nH]c4ccccc34)cc2)cc1.Cl [Example 148, tris[4-[N-α-[2-(2-ethyl-1H-indol-3-yl)acetyl]-D-lysyl]aminophenyl]methane hydrochloride] | 25 µM | 73.6% |
| NCCCC[C@@H](NC(=O)Cc1c[nH]c2ccccc12)C(=O)Nc1ccc(N(c2ccc(NC(=O)[C@@H](CCCCN)NC(=O)Cc3c[nH]c4ccccc34)cc2)c2ccc(NC(=O)[C@@H](CCCCN)NC(=O)Cc3c[nH]c4ccccc34)cc2)cc1.O=C(O)C(F)(F)F [Example 201, tris[4-[N-α-[2-(1H-indol-3-yl)acetyl]-D-lysyl]aminophenyl]amine trifluoroacetate] | 25 µM | 110% |
| COc1ccc2[nH]c(C)c(CC(=O)N[C@@H](CCCCN(C)C)C(=O)Nc3ccc(C(c4ccc(NC(=O)[C@H](CCCCN(C)C)NC(=O)Cc5c(C)[nH]c6ccc(OC)cc56)cc4)c4ccc(NC(=O)[C@H](CCCCN(C)C)NC(=O)Cc5c(C)[nH]c6ccc(OC)cc56)cc4)cc3)c2c1 [Example 31] | 25 µM | 96.4% |
| Cl.NCCCC[C@H](NC(=O)Cc1ccsc1)C(=O)Nc1ccc(C(c2ccc(NC(=O)[C@H](CCCCN)NC(=O)Cc3ccsc3)cc2)c2ccc(NC(=O)[C@H](CCCCN)NC(=O)Cc3ccsc3)cc2)cc1 [Example 13, tris[4-[N-α-[2-(thiophen-3-yl)acetyl]-L-lysyl]aminophenyl]methane hydrochloride] | 25 µM | 25.7% |
| Cc1[nH]c2ccccc2c1CC(=O)N[C@@H](CCCCN(C)C)C(=O)Nc1ccc(C(c2ccc(NC(=O)[C@H](CCCCN(C)C)NC(=O)Cc3c(C)[nH]c4ccccc34)cc2)c2ccc(NC(=O)[C@H](CCCCN(C)C)NC(=O)Cc3c(C)[nH]c4ccccc34)cc2)cc1 [Example 30, tris[4-[N-α-[2-(2-methyl-1H-indol-3-yl)acetyl]-N-ε-dimethyl-L-lysyl]aminophenyl]methane] | 25 µM | 108% |
| NCCCC[C@@H](NC(=O)c1cccc2cc(O)ccc12)C(=O)Nc1ccc(C(c2ccc(NC(=O)[C@@H](CCCCN)NC(=O)c3cccc4cc(O)ccc34)cc2)c2ccc(NC(=O)[C@@H](CCCCN)NC(=O)c3cccc4cc(O)ccc34)cc2)cc1.O=C(O)C(F)(F)F [Example 192, tris[4-[N-α-(6-hydroxynaphthalen-1-yl)carbonyl-D-lysyl]aminophenyl]methane trifluoroacetate] | 25 µM | 71.3% |
| Cl.NCCCC[C@@H](NC(=O)[C@H](N)Cc1c[nH]c2ccccc12)C(=O)Nc1ccc(C(c2ccc(NC(=O)[C@@H](CCCCN)NC(=O)[C@H](N)Cc3c[nH]c4ccccc34)cc2)c2ccc(NC(=O)[C@@H](CCCCN)NC(=O)[C@H](N)Cc3c[nH]c4ccccc34)cc2)cc1 [Example 161, tris[4-[N-α-(D-tryptophyl)-D-lysyl]aminophenyl]methane hydrochloride] | 25 µM | 65.6% |
| Cc1[nH]c2ccccc2c1CC(=O)N[C@H](CCCCN)C(=O)Nc1ccc(C(c2ccc(NC(=O)[C@@H](CCCCN)NC(=O)Cc3c(C)[nH]c4ccccc34)cc2)c2ccc(NC(=O)[C@@H](CCCCN)NC(=O)Cc3c(C)[nH]c4ccccc34)cc2)cc1 [Example 21, tris[4-[N-α-[2-(2-methyl-1H-indol-3-yl)acetyl]-D-lysyl]aminophenyl]methane] | 25 µM | 60.1% |
| CN(C)CCCC[C@H](NC(=O)Cc1c[nH]c2ccccc12)C(=O)Nc1ccc(C(c2ccc(NC(=O)[C@H](CCCCN(C)C)NC(=O)Cc3c[nH]c4ccccc34)cc2)c2ccc(NC(=O)[C@H](CCCCN(C)C)NC(=O)Cc3c[nH]c4ccccc34)cc2)cc1 [Example 29, tris[4-[N-α-[2-(1H-indol-3-yl)acetyl]-N-εdimethyl-L-lysyl]aminophenyl]methane] | 25 µM | 98.5% |
| NCCCC[C@H](NC(=O)Cc1ccccc1)C(=O)Nc1ccc(C(c2ccc(NC(=O)[C@H](CCCCN)NC(=O)Cc3ccccc3)cc2)c2ccc(NC(=O)[C@H](CCCCN)NC(=O)Cc3ccccc3)cc2)cc1.O=C(O)C(F)(F)F [Example 199, tris[4-[N-α-(2-phenylacetyl)-L-lysyl]aminophenyl]methane trifluoroacetate] | 12.5 µM | 47.0% |
| Cc1[nH]c2ccccc2c1CC(=O)N[C@@H](CCCCN)C(=O)Nc1ccc(C(c2ccc(NC(=O)[C@H](CCCCN)NC(=O)Cc3c(C)[nH]c4ccccc34)cc2)c2ccc(NC(=O)[C@H](CCCCN)NC(=O)Cc3c(C)[nH]c4ccccc34)cc2)cc1.Cl [Example 7, tris[4-[N-α-[2-(2-methyl-1H-indol-3-yl)acetyl]-L-lysyl]aminophenyl]methane hydrochloride] | 21 µM | 24.7% |
| Cl.N=C(N)NCCC[C@@H](NC(=O)Cc1ccsc1)C(=O)Nc1ccc(C(c2ccc(NC(=O)[C@@H](CCCNC(=N)N)NC(=O)Cc3ccsc3)cc2)c2ccc(NC(=O)[C@@H](CCCNC(=N)N)NC(=O)Cc3ccsc3)cc2)cc1 (stereo partly drawn) [Example 40, tris[4-[N-α-[2-(thiophen-3-yl)acetyl]-D-arginyl]aminophenyl]methane hydrochloride] | 12.5 µM | 59.0% |
| Cl.NCCCC[C@@H](NC(=O)[C@H](N)Cc1ccc(O)cc1)C(=O)Nc1ccc(C(c2ccc(NC(=O)[C@@H](CCCCN)NC(=O)[C@H](N)Cc3ccc(O)cc3)cc2)c2ccc(NC(=O)[C@@H](CCCCN)NC(=O)[C@H](N)Cc3ccc(O)cc3)cc2)cc1 [Example 160, tris[4-[N-α-(D-tyrosyl)-D-lysyl]aminophenyl]methane hydrochloride] | 100 µM | 22.5% |
| CN(C)CCCC[C@H](NC(=O)Cc1ccsc1)C(=O)Nc1ccc(C(c2ccc(NC(=O)[C@H](CCCCN(C)C)NC(=O)Cc3ccsc3)cc2)c2ccc(NC(=O)[C@H](CCCCN(C)C)NC(=O)Cc3ccsc3)cc2)cc1 [Example 32, tris[4-[N-α-[2-(thiophen-3-yl)acetyl]-N-ε-dimethyl-L-lysyl]aminophenyl]methane] | 25 µM | 87.1% |
| Cl.NCCCC[C@@H](NC(=O)Cc1ccsc1)C(=O)Nc1ccc(C(c2ccc(NC(=O)[C@@H](CCCCN)NC(=O)Cc3ccsc3)cc2)c2ccc(NC(=O)[C@@H](CCCCN)NC(=O)Cc3ccsc3)cc2)cc1 [Example 23, tris[4-[N-α-[2-(thiophen-3-yl)acetyl]-D-lysyl]aminophenyl]methane hydrochloride] | 25 µM | 48.0% |
| Cc1[nH]c2ccccc2c1CC(=O)N[C@@H](CCN)C(=O)Nc1ccc(C(c2ccc(NC(=O)[C@H](CCN)NC(=O)Cc3c(C)[nH]c4ccccc34)cc2)c2ccc(NC(=O)[C@H](CCN)NC(=O)Cc3c(C)[nH]c4ccccc34)cc2)cc1.O=C(O)C(F)(F)F [Example 132, tris[4-[β-aminomethyl-N-[2-(2-methyl-1H-indol-3-yl)acetyl]-L-alanyl]aminophenyl]methane trifluoroacetate] | 50 µM | 22.3% |
